{"source": "patent US20120277156A1", "about": "“INHIBITION OF PATHOLOGICAL BONE FORMATION” (priority 2009, published 2012)", "origin": "cited, not measured here", "tested_on": "proprioception", "settings": "rat, in vivo", "data": [{"smiles": "CCN(CC)CC(=O)Nc1c(C)cccc1C", "note": "[lidocaine]", "values": [{"measurement": "time by which function was fully recovered", "result": "≤ 120", "unit": "min"}]}]}
